Measured values: patent US20220143128A1, “METHODS FOR TREATING TRAUMATIC BRAIN INJURY” (BCell Solutions, Inc., priority 2018, published 2022)
Entries after “also recorded” stand apart in the source; their conditions may differ.

Tests used:
[1] = system: cell surface CLIP on immune cells in the spleen; experiment: Dose response of CD74 cleavage inhibitors on cell surface CLIP in the spleen after FPI; assay type: in vivo; settings: for cell surface CLIP on immune cells in the spleen / optimal dose to reduce CLIP after FPI: administered 30 min after FPI, spleen at 1 day post-FPI
Description: FIGS. 5A-5C is a set of bar graphs showing a dose response curve of inhibitors of various specific mechanisms of cleavage of full-length CD74 into CLIP 24 hours after FPI.
In addition to inhibiting MIF-binding to CD74, we have reduced the level of CLIP by inhibiting the distinct mechanisms by which CD74 is cleaved. Drugs that inhibit CD74 cleavage have been administered 30 min after FPI and the levels of CLIPs in the spleen have been assessed at 1 day post-FPI. […] We also found, using the proteasomal inhibitor, Bortezomib (PS341), that this compound was most efficacious at reducing cell-surface CLIP on B cells at 0.1 mg·kg, i.p. (FIG. 5B). Finally, Cystatin S is an inhibitor of Cathepsin S, which cleaves CD74 in B cells, dendritic cells, and macrophages^11,12. […] The optimal dosage is 50 mg/kg (FIG. 5C). At concentrations greater than 50 mg/kg, the compound appeared to be toxic under the tested conditions.

[2] = system: FJC-labeled cells in the perilesion area; experiment: Fluorojade C (FJC) histology of neurodegeneration in peri-injury cortex after FPI; assay type: in vivo, mouse; settings: 10 mg/kg at 30 mins after FPI; 3 days after FPI
Description: FIG. 3A is a photomicrograph depicting FJC-staining in the peri-lesion area of a mouse treated with DMSO 30 mins after FPI. 3B is a comparative photomicrograph from a mouse treated with ISO1 at 30 mins after FPI. […] N=6 per group.
We assessed the effects of 10 mg/kg of ISO1 administered at 30 mins after FPI on neurodegeneration (FIG. 3), and the astrocytic response (FIG. 4), in peri-injury cortex, at 3 days after FPI.

GFAP+ astrocytes = experiment: GFAP-labeling of the astrocytic response in perilesion cortex after FPI; assay type: in vivo, mouse; settings: treatment at 30 mins after FPI (ISO1 10 mg/kg), 3 days after FPI
[3] = system: CLIP+ B cells in the brain; experiment: Brain flow cytometry for CLIP+ B cells after fluid percussion injury (FPI); assay type: in vivo, mouse
Description: The contributions of full-length cell-surface CD74 and its proteolytic products (CLIPs) in the pathogenic mechanisms that follow TBI were assessed. First, we determined if full-length CD74 on B cells was altered after fluid percussion injury (FPI) in an FPI model of TBI. A mouse model of TBI was produced and splenoctyes from those mice were isolated following FPI. The model, referred to as the “fluid percussion injury model”, is referenced in Tobin et al Acta Neuropathologica Communications 2014. Splenocytes were stained with anti-CD19 for B cells and counterstained with anti-CD74.
In order to address the innate immune components of CD74, a series of experiments in which MIF-binding to CD74 was antagonized at 30 min after FPI were performed. MIF mRNA levels are elevated after TBI. This occurs as a part of the innate immune response, via MIF-binding to, and signaling through cell surface CD74^35. We utilized ISO1, a small molecule that inhibits MIF-binding to CD74, to determine whether inhibition of MIF-binding would alter FPI-induced, CLIP-related cellular (FIG. 2) and neuroanatomical outcomes (FIGS. 3 and 4). ISO1 was administered at 30 mins after FPI and performed brain flow cytometry to assess what percent of leukocytes are CLIP+ B cells. It should be noted that less than 0.001 B cells enter the brain in naïve mice so they are not included in the graph.

CLIPs in MHCII = settings: treatment with Cystatin S; literature reference; cited from earlier work

## C[C@H]1CCC/C=C/[C@@H]2C[C@H](O)C[C@H]2[C@H](O)/C=C/C(=O)O1 [Brefeldin A]
[1]
  cell surface CLIP on immune cells in the spleen: reduces cell surface CLIP on immune cells in the spleen
  optimal dose to reduce CLIP after FPI: 5 mg/kg

## CC(C)C[C@H](NC(=O)[C@H](Cc1ccccc1)NC(=O)c1cnccn1)B(O)O [Bortezomib]
[1]; i.p., 30 min after FPI, 24 hours after FPI
  dose most efficacious at reducing cell-surface CLIP on B cells: 0.1 mg·kg

## COC(=O)CC1CC(c2ccc(O)cc2)=NO1 (centres unmarked) [ISO1, 4,5-Dihydro-3-(4-hydroxyphenyl)-5-isoxazoleacetic acid methyl ester]
[2]
  neurodegeneration (total number of FJC-labeled cells in the perilesion area): no effect on neurodegeneration; also recorded: no effect on the total number of FJC-labeled cells
GFAP+ astrocytes
  astrocytic response (GFAP-labeling) in perilesion cortex: significantly reduced the peak astrocyte response; also recorded: significantly reduced GFAP-labeling
[3]; administered at 30 min after FPI, brain at 24 hrs after FPI
  percent of CLIP+ B cells in the brain: significantly reduced the percentage of CLIP+ B cells in the brain; also recorded: reduced the percent of B cells that express CLIP in the brain
[3]; at 30 mins after FPI
  dose providing the most significantly robust decrease in the percent of CLIP+ B cells entering the brain: 10 mg/kg

B1: Cystatin S: inhibitor of Cathepsin S, which cleaves CD74 in B cells, dendritic cells, and macrophages (protein, UniProt P01036 21-141, looked up)
Cystatin-S: SSSKEENRIIPGGIYDADLNDEWVQRALHFAISEYNKATEDEYYRRPLQVLRAREQTFGGVNYFFDVEVGRTICTKSQPNLDTCAFHEQPELQKKQLCSFEIYEVPWEDRMSLVNSRCQEA
[1]; FPI mice, under the tested conditions
  concentrations at which the compound appeared to be toxic: greater than 50 mg/kg
[1]
  cell surface CLIP on immune cells in the spleen: reduction in immune cell-surface CLIP; also recorded: reduced immune cell-surface CLIP
  optimal dose to reduce CLIP after FPI: 50 mg/kg
CLIPs in MHCII
  level of CLIPs in MHCII: reduces the level of CLIPs in MHCII
